According to ChEMBL document CHEMBL3879911, “Heteroaryl compounds useful as inhibitors of E1 activating enzymes” (2008):
pIC50: −log10 of the molar value.

Molecular target: T1, NEDD8 activating enzyme (Homo sapiens, UniProt Q8TBC4)
T1 sequence (Q8TBC4 whole entry): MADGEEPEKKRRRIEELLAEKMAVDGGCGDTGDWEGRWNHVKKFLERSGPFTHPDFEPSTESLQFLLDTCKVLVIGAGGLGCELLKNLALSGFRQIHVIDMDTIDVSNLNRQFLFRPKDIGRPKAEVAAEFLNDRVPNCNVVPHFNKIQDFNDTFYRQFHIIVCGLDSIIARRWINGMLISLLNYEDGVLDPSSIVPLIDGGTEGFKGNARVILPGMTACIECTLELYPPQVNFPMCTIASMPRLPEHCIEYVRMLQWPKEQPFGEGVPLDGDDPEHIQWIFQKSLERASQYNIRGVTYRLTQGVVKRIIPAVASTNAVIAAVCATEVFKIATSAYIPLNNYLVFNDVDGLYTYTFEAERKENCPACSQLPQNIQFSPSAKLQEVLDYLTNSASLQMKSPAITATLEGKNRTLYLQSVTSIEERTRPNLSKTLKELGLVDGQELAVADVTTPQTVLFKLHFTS
T1 sequence (Q13564 whole entry): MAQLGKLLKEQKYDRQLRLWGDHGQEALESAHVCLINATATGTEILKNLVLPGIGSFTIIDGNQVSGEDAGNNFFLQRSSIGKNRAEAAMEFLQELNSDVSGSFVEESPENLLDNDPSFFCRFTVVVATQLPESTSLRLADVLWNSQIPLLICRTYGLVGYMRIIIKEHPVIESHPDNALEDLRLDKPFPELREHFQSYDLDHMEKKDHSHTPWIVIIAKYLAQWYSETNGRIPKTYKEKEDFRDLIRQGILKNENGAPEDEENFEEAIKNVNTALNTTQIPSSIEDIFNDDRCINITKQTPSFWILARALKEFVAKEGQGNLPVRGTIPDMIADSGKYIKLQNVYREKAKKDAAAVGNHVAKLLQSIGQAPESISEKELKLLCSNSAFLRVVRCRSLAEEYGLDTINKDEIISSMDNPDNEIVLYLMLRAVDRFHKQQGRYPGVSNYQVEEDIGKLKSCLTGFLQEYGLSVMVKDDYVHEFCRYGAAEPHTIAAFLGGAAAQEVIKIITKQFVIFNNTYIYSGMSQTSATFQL
Experiment: Inhibition of recombinant human NAEalpha/N-terminal His-tagged NAEbeta expressed in baculovirus infected insect Sf9 cells using N-terminal FLAG tagged Nedd8 as substrate incubated for 105 mins in presence of N-terminal GST-tagged Ubc12 by FRET assay

SMILES	pIC50
CN(c1ncnc2[nH]c(-c3cccc4ccccc34)nc12)[C@@H]1C[C@@H](COS(N)(=O)=O)[C@@H](O)C1	≥ 6.30
NS(=O)(=O)OC[C@@H]1C[C@@H](Oc2ncnc3[nH]c(-c4cccc5ccccc45)nc23)C[C@@H]1O	≥ 6.30
NS(=O)(=O)OC[C@H]1C[C@@H](Nc2cc(N[C@H]3CCc4c(Cl)cccc43)ncn2)[C@H](O)[C@@H]1O	≥ 6.30
Cc1nc(N[C@H]2CCc3ccccc32)cc(N[C@@H]2C[C@H](COS(N)(=O)=O)[C@@H](O)[C@H]2O)n1	≥ 6.30
NS(=O)(=O)OC[C@H]1C[C@@H](Nc2ccnc(C(=O)N3CCc4ccccc43)c2)[C@H](O)[C@@H]1O	< 5.00
CN(C)c1ccc(-c2nc3ncnc(O[C@@H]4C[C@@H](COS(N)(=O)=O)[C@@H](O)C4)c3[nH]2)c2ccccc12	≥ 6.30
NS(=O)(=O)OC[C@@H]1C[C@@H](Oc2cc(NC3CCCC3)ncn2)C[C@@H]1O	5.00 to 6.30

Continued, values first:

pIC50	SMILES
≥ 6.30	NS(=O)(=O)OC[C@@H]1C[C@@H](Nc2ncnc3[nH]c(-c4ccccc4OCc4ccccc4)nc23)C[C@@H]1O
≥ 6.30	CO[C@H]1CC(C)(C)c2ccccc2[C@H]1Nc1cc(O[C@@H]2C[C@@H](COS(N)(=O)=O)[C@@H](O)C2)ncn1
5.00 to 6.30	NS(=O)(=O)OC[C@H]1C[C@@H](Nc2nc(N[C@H]3CCc4ccccc43)ncc2F)[C@H](O)[C@@H]1O
< 5.00	NS(=O)(=O)OC[C@@H]1C[C@@H](Oc2cc(N3CCc4ccccc4C3)ncn2)C[C@@H]1O
≥ 6.30	NS(=O)(=O)OCC1C[C@@H](Nc2ncnc3[nH]c(C4CCCc5ccccc54)nc23)C[C@@H]1O (single isomer, unassigned)
≥ 6.30	NS(=O)(=O)OC[C@@H]1C[C@@H](Nc2ncnc(N[C@@H]3c4ccccc4CC3(F)F)n2)C[C@@H]1O
≥ 6.30	NS(=O)(=O)OC[C@@H]1C[C@@H](Nc2ncnc3[nH]c(-c4cccc(-c5ccccc5)c4)nc23)C[C@@H]1O
